The record followed here is BindingDB's records for patent US20240124450 (Pfizer, 2024).

Holding throughout (assay): Enzyme Assay: Pan SIK MS IC50 Assay
Assay [1] addresses Serine/threonine-protein kinase SIK1 (Homo sapiens, UniProt P57059). Here is the method:
(§1) Salt Induced Kinase (SIK) activity is determined by measuring the effect of a test agent on the activity of the appropriate SIK enzyme to phosphorylate its corresponding substrate. […] The phosphorylated substrate product resulting from the kinase reaction is detected by LCMS/MS, and the area under the peak curve correlates with kinase activity. […] The plates are spun at 1000 rpm for 30 seconds to ensure compounds are at the bottom of the well before removing foil covers. 0.15 μL HPE (assay std) and ZPE (DMSO) are added to the ARP using an HP D300 dispenser. Plates are spun again at 1000 rpm for 30 seconds. […] Plates are spun at 1000 rpm for 30 seconds. Plates are then sealed and incubated at RT for 10 minutes. Following incubation, 5 μL of 5× peptide reagent is added with a Multidrop Combi and designated small volume cassette to initiate the kinase reaction. Plates are spun at 1000 rpm for 30 seconds. Plates are then sealed and incubated at RT for 90 minutes. The assay is stopped by the addition of 5 μl of 120 mM EDTA added with a Multidrop Combi and designated small volume cassette (20 mM final concentration). Plates are spun at 1000 rpm for 30 seconds. 10 μl of the final reaction mix from each of the three individual enzyme plates are transferred by a Platemate Plus to the same corresponding 96 well deepwell plate containing 70 μl Water/Methanol (85/15%) for multiplex MS detection ([…]). Using Activity Base (ABase), an idbs data analysis software tool, the reported area ratio unit data is associated to compound, batch and dose information, the data is evaluated for quality, and the percent inhibition of each well is calculated. The data from each Max effect/HPE and Min effect/ZPE control wells are assessed, and outliers are excluded from all further calculations. The mean and standard deviation of the HPE and ZPE are then calculated for each plate, along with the Z Prime. The compound data is converted into % effect, using the average ZPE and HPE controls as 0% and 100% activity, respectively.

The target in assay [2] is Serine/threonine-protein kinase SIK3 (Homo sapiens, UniProt Q9Y2K2). Here is the method: as §1
Serine/threonine-protein kinase SIK3, sequence (Q9Y2K2 whole entry): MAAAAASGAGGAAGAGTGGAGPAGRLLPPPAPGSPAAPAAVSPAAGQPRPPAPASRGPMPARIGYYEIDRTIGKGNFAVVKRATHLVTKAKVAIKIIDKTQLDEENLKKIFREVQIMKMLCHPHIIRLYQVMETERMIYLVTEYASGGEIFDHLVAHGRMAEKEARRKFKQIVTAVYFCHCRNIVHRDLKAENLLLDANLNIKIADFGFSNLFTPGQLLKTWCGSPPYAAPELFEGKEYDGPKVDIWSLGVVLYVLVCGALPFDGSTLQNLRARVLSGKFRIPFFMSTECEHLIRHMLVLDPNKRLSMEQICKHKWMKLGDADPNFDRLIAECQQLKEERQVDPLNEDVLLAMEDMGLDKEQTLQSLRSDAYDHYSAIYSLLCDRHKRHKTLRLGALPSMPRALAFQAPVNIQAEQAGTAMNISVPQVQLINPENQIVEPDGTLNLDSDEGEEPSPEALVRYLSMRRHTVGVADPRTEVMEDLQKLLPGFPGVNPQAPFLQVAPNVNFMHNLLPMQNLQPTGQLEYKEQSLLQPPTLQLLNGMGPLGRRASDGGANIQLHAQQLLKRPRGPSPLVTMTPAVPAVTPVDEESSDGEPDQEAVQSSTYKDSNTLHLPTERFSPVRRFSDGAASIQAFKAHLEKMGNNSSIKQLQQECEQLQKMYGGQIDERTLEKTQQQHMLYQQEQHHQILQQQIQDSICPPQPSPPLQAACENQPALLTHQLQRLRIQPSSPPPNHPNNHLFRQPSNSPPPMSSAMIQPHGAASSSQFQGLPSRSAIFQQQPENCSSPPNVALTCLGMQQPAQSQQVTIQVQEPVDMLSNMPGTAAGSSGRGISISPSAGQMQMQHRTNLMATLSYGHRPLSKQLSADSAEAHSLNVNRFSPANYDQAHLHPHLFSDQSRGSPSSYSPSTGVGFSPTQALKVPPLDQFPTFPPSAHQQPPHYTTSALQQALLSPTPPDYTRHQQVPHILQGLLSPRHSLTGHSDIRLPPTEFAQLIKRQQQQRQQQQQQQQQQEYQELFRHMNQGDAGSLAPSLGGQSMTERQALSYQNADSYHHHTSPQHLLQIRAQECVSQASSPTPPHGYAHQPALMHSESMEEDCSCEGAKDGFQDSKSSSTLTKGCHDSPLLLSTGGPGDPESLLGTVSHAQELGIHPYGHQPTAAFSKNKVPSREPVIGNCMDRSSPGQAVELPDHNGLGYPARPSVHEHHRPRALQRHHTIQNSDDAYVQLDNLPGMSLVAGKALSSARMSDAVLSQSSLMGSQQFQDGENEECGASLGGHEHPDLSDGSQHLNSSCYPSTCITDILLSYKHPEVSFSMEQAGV
Assay [3] concerns the target Serine/threonine-protein kinase SIK2 (Homo sapiens, UniProt Q9H0K1). As for the experimental part:
as §1

The term IC50 denotes the midpoint of a concentration-inhibition curve. Read a high IC50 as weaker potency in that assay.

Serine/threonine-protein kinase SIK1, sequence (P57059 whole entry): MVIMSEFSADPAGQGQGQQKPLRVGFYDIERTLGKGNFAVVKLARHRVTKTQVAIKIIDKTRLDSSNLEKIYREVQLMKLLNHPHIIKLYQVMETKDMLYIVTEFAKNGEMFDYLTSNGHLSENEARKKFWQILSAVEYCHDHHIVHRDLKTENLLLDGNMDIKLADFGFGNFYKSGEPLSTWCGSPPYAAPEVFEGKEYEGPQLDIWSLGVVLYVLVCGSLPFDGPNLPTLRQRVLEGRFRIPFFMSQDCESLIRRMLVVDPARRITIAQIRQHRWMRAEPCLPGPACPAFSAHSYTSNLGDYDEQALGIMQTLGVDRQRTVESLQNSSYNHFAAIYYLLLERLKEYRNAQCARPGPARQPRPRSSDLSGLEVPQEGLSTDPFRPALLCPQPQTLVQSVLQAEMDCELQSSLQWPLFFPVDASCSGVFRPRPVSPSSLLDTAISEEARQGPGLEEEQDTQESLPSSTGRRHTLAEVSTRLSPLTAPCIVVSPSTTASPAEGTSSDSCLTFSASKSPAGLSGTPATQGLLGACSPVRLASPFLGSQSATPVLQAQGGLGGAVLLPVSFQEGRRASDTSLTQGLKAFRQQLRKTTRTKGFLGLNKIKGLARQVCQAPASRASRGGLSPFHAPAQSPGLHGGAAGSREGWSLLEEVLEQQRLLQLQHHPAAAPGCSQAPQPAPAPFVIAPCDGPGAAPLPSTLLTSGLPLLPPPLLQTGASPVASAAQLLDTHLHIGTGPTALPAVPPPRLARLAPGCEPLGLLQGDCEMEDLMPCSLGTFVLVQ
Serine/threonine-protein kinase SIK2, sequence (Q9H0K1 whole entry): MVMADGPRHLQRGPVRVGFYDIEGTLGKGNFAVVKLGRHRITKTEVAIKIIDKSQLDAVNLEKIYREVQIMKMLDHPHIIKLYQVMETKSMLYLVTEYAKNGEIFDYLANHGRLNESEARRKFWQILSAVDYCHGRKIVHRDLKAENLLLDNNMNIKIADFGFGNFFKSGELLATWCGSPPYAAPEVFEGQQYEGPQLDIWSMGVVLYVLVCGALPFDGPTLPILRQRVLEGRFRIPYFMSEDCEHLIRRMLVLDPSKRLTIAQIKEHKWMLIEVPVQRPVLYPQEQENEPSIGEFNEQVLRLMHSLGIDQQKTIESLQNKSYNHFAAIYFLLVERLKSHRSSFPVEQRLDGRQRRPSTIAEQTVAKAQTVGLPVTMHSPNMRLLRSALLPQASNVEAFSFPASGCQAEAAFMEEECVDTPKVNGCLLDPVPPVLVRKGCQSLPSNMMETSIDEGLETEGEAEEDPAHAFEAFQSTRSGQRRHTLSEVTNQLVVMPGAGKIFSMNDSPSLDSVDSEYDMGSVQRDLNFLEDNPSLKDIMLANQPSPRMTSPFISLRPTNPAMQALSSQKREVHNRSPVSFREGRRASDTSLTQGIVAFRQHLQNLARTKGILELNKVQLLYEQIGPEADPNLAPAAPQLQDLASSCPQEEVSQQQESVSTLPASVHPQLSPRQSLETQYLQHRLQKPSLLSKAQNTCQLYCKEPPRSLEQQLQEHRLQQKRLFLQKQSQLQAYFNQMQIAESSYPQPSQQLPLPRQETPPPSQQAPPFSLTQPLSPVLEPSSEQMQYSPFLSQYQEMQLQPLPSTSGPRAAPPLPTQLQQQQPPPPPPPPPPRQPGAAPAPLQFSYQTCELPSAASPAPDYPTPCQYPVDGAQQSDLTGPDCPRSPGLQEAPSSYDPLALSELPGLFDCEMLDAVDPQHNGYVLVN

On to `CC[C@@H]1CCC[C@@]1(N)COc1cc(-c2cnc3cccc(OC)n23)cc(SC)c1C#N` (mixture of isomers) [US20240124450, Example 9], for which the values for the IC50 in assay [1] and in assay [2] were 0.9 nM and 2 nM, respectively.

Regarding `CC[C@@H]1CCC[C@](N)(COc2cc(-c3cnc4cccc(OC)n34)cc(OC)c2C#N)C1` [US20240124450, Example 16], the IC50 came out at 0.8 nM in assay [1] and 1.7 nM in assay [2].

As to `CSc1cc(-c2cnc3cccc(C#N)n23)cc(OC[C@@]2(N)CCC(F)(F)C2)c1C#N` (mixture of isomers) [US20240124450, Example 12], the values for the IC50 in assay [1], in assay [3] and in assay [2] were 2.4 nM, 1.8 nM and 4.8 nM, respectively.
